Laboratory results as given in patent publication US11021475B2, “Amide-substituted heterocyclic compounds useful as modulators of IL-12, IL-23 and/or IFN alpha responses” (Bristol-Myers Squibb Company, priority 2012, dated 2021).
Where two headings read alike, the source gives them in different places.

Key:
[1] = tested on: IL-23 stimulated Kit225 T cells (STAT-dependent luciferase reporter); experiment: Kit225 T cell assay, IL-23-stimulated STAT-dependent luciferase reporter; format: cell-based, human
Procedure: (§1) Kit225 T cells with a stably-integrated STAT-dependent luciferase reporter were plated in RPMI (Gibco) containing 10% heat-inactivated FBS (Gibco) and 100 U/mL PenStrep (Gibco). The cells were then stimulated with either 20 ng/mL human recombinant IL-23 or 200 U/mL human recombinant IFNα (PBL InterferonSource) for 5-6 hours. Luciferase expression was measured using the STEADY-GLO® Luciferase Assay System (Promega) according to the manufacturer's instructions. Inhibition data were calculated by comparison to no inhibitor control wells for 0% inhibition and non-stimulated control wells for 100% inhibition.

[2] = tested on: IFNα stimulated Kit225 T cells (STAT-dependent luciferase reporter); experiment: Kit225 T cell assay, IFNα-stimulated STAT-dependent luciferase reporter; format: cell-based, human
Procedure: as §1

[3] = 20 ng/mL human recombinant IL-23, 5-6 hours, read-out: IL-23 Kit225 Reporter (IC50)
[4] = 200 U/mL human recombinant IFNα, 5-6 hours, read-out: IFNα Kit225 Reporter (IC50)
[5] = KIT225, 20 ng/mL human recombinant IL-23, 5-6 hours, read-out: IL-23 Kit225 Reporter (IC50)
[6] = KIT225, 200 U/mL human recombinant IFNα, 5-6 hours, read-out: IFNα Kit225 Reporter (IC50)

| SMILES | IC50 [1, 3] [nM] | IC50 [2, 4] [nM] | other results |
| --- | --- | --- | --- |
| CNC(=O)c1nnc(NC(=O)C2CC2)cc1Nc1cccc(-c2cn(C)nn2)c1OC [Example 138] | 30 | 30 |  |
| CNC(=O)c1nnc(Nc2cc(C)c(C#N)cn2)cc1Nc1ccccc1S(C)(=O)=O [Example 26] | 60 | 50 |  |
| CNC(=O)c1nnc(Nc2cc(C)nc(C)n2)cc1Nc1cccc(-c2nc(C)nn2C)c1OC [Example 184] | 6.41 | 7.2 |  |
| CNC(=O)c1nnc(Nc2cc(OC)ncn2)cc1Nc1ccccc1S(C)(=O)=O [Example 42] | 150 | 260 |  |
| Cc1cc(Nc2cc(Nc3ccccc3S(C)(=O)=O)c(C(N)=O)nn2)ncc1F [Example 18] | 100 | 30 |  |
| CNC(=O)c1nnc(Nc2cc(C)n(C)n2)cc1Nc1cccc(-c2nc(C)cs2)c1OC [Example 100] | 40 | 50 |  |
| CNC(=O)c1nnc(Nc2cc(C)c(F)cn2)cc1Nc1cccc(-c2nccs2)c1OC [Example 106] | 80 | 80 |  |
| CNC(=O)c1nnc(NC(=O)C2CC2)cc1Nc1cccc(-c2cnn(CC(C)(C)O)c2)c1OC [Example 189] | 150 | 30 |  |
| CNC(=O)c1nnc(Nc2cc(C)nc(C)n2)cc1Nc1cccc(-c2ncccn2)c1OC [Example 121] | 2.64 | 2.33 |  |
| CCc1ccnc(Nc2cc(Nc3cccc(-c4ncn(C)n4)c3OC)c(C(=O)NC)nn2)c1 [Example 128] | 6.08 | 3.17 |  |
| CNC(=O)c1nnc(Nc2cc(C)nc(C)n2)cc1Nc1cccc(-c2cscn2)c1OC [Example 130] | 9.7 | 10 |  |
| CNC(=O)c1nnc(Nc2ccc(F)cn2)cc1Nc1cccc(-c2cccnn2)c1OC [Example 79] | 80 | 30 |  |
| CCn1cnc(-c2cccc(Nc3cc(Nc4ccccn4)nnc3C(=O)NC)c2OC)n1 [Example 177] | 1.52 | 1.63 |  |
| CCOc1ccnc(Nc2cc(Nc3cccc(-c4ncn(C)n4)c3OC)c(C(=O)NC)nn2)c1 [Example 127] | 30 | 20 |  |
| CNC(=O)c1nnc(NC(=O)C2CC2)cc1Nc1cccc(-c2cscn2)c1OC [Example 126] | 40 | 30 |  |
| CNC(=O)c1nnc(Nc2cc(C)n(C)n2)cc1Nc1cccc(-c2cnc(C)s2)c1OC [Example 161] | 210 | 210 |  |
| CNC(=O)c1nnc(Nc2ccccn2)cc1Nc1cccc(-c2ccnn2C)c1OC [Example 199] | 190 | 230 |  |
| [2H]C([2H])([2H])NC(=O)c1nnc(NC(=O)C2CC2)cc1Nc1cccc(-c2ncn(CC)n2)c1OC [Example 174] |  |  | IC50 ([1]; Homo sapiens, KIT225, read-out: IL-23 Kit225 Reporter (IC50, nM)): 20 nM; IC50 ([2]; Homo sapiens, KIT225, read-out: IFNα Kit225 Reporter (IC50, nM)): 6.97 nM |
| CNC(=O)c1nnc(NC(=O)C2CC2)cc1Nc1cccc(-n2cccn2)c1OC [Example 64] | 250 | 60 |  |
| CNC(=O)c1nnc(Nc2ccn(C)n2)cc1Nc1cccc(-c2ncccn2)c1OC [Example 111] | 30 | 10 |  |

| SMILES | IC50 [1, 3] [nM] | IC50 [2, 4] [nM] | other results |
| --- | --- | --- | --- |
| CNC(=O)c1nnc(Nc2cc(COC)nc(C)n2)cc1Nc1ccccc1S(C)(=O)=O [Example 40] | 80 | 120 |  |
| CNC(=O)c1nnc(Nc2cc(C)c(F)cn2)cc1Nc1cccc(-c2ncc(C)s2)c1OC [Example 124] | 700 | 490 |  |
| CNC(=O)c1nnc(Nc2ccc(F)cn2)cc1Nc1cccc(-c2ccccn2)c1OC [Example 77] | 70 | 20 |  |
| CNC(=O)c1nnc(Nc2cc(C(C)O)ccn2)cc1Nc1ccccc1S(C)(=O)=O (stereo not shown) [Example 48] | 330 | 110 |  |
| CNC(=O)c1nnc(Nc2cc(C(C)(C)O)ccn2)cc1Nc1ccccc1S(C)(=O)=O [Example 50] | 310 | 490 |  |
| CNC(=O)c1nnc(Nc2ccccn2)cc1Nc1ccccc1S(C)(=O)=O [Example 31] | 80 | 90 |  |
| CNC(=O)c1nnc(Nc2cc(C)n(C)n2)cc1Nc1cccc(-c2ncccn2)c1OC [Example 92] | 40 | 8.63 |  |
| CNC(=O)c1nnc(Nc2ccccn2)cc1Nc1cccc(-c2ncn(C)n2)c1SC [Example 205] |  |  | IC50 [1, 5]: 140 nM; IC50 [2, 6]: 50 nM |
| CNC(=O)c1nnc(NC(=O)C2CC2)cc1Nc1ccccc1S(C)(=O)=O [Example 12] | 230 | 100 |  |
| CNC(=O)c1nnc(Nc2cc(C)nc(C)n2)cc1Nc1ccccc1S(C)(=O)=O [Example 7] | 70 | 50 |  |
| CNC(=O)c1nnc(Nc2cc(C)c(F)cn2)cc1Nc1cccc(-c2ccnn2C)c1OC [Example 197] | 290 | 260 |  |
| CNC(=O)c1nnc(Nc2cc(C)c(F)cn2)cc1Nc1cccc(-c2cscn2)c1OC [Example 129] | 20 | 10 |  |
| CNC(=O)c1nnc(Nc2cc(OC)ccn2)cc1Nc1cccc(-c2ncn(C)n2)c1OC [Example 133] | 8.03 | 3.81 |  |
| CCc1cc(Nc2cc(Nc3cccc(-c4ncn(C)n4)c3OC)c(C(=O)NC)nn2)ncn1 [Example 68] | 6.56 | 3.45 |  |
| [2H]C([2H])([2H])NC(=O)c1nnc(NC(=O)C2CC2)cc1Nc1cccc(-c2ccn(CC(C)(C)O)n2)c1OC [Example 196] |  |  | IC50 [1, 5]: 70 nM; IC50 [2, 6]: 160 nM |
| CNC(=O)c1nnc(Nc2ccccn2)cc1Nc1cccc(C(=O)NC2CC2)c1OC [Example 165] | 340 | 230 |  |
| CNC(=O)c1nnc(Nc2cc(OC(C)C)nc(C)n2)cc1Nc1ccccc1S(C)(=O)=O [Example 44] | 250 | 100 |  |
| [2H]C([2H])([2H])NC(=O)c1nnc(NC(=O)C2CC2)cc1Nc1cccc(-c2cc(C)[nH]n2)c1OC [Example 200] |  |  | IC50 [1, 5]: 80 nM; IC50 [2, 6]: 30 nM |
| CNC(=O)c1nnc(Nc2ccc(F)cn2)cc1Nc1cccc(-c2ccncn2)c1OC [Example 89] | 20 | 2.18 |  |
| CNC(=O)c1nnc(Nc2cc(C)c(C)cn2)cc1Nc1ccccc1S(C)(=O)=O [Example 20] | 20 | 20 |  |

| SMILES | IC50 [1, 3] [nM] | IC50 [2, 4] [nM] | other results |
| --- | --- | --- | --- |
| CNC(=O)c1nnc(Nc2cc(C)nc(C)n2)cc1Nc1cccc(-c2nnc(C)o2)c1OC [Example 153] | 150 | 30 |  |
| CNC(=O)c1nnc(Nc2cc(OC(C)C)nc(C)n2)cc1Nc1cccc(-c2ncn(C)n2)c1OC [Example 62] | 30 | 20 |  |
| [2H]C([2H])([2H])NC(=O)c1nnc(NC(=O)C2CC2)cc1Nc1cccc(-c2nc(C)nn2C)c1OC [Example 182] |  |  | IC50 [1, 5]: 190 nM; IC50 [2, 6]: 80 nM |
| [2H]C([2H])([2H])NC(=O)c1nnc(Nc2cc(C)c(F)cn2)cc1Nc1ccccc1S(C)(=O)=O [Example 1] |  |  | IC50 [1, 5]: 30 nM; IC50 [2, 6]: 20 nM |
| [2H]C([2H])([2H])NC(=O)c1nnc(NC(=O)C2CC2)cc1Nc1cccc(-c2nc(C)no2)c1OC [Example 162, 6-(cyclopropanecarboxamido)-4-((2-methoxy-3-(3-methyl-1,2,4-oxadiazol-5-yl)phenyl)amino)-N-trideuteromethylpyridazine-3-carboxamide] |  |  | IC50 [1, 5]: 120 nM; IC50 [2, 6]: 60 nM |
| CNC(=O)c1nnc(Nc2cc(C)ncn2)cc1Nc1cccc(-c2ncccn2)c1OC [Example 119] | 10 | 7.37 |  |
| CNC(=O)c1nnc(Nc2cc(OC(C)C)ncn2)cc1Nc1cccc(-c2ncn(C)n2)c1OC [Example 98] | 30 | 9.16 |  |
| CCc1cc(Nc2cc(Nc3cccc(-c4ncn(C)n4)c3OC)c(C(=O)NC)nn2)nc(C)n1 [Example 115] | 2.96 | 1.6 |  |
| CNC(=O)c1nnc(Nc2ccccn2)cc1Nc1cccc(-c2ncnn2C)c1OC [Example 178] | 30 | 10 |  |
| CNC(=O)c1nnc(Nc2ccccn2)cc1Nc1cccc(-n2cccn2)c1OC [Example 65] | 60 | 20 |  |
| CNC(=O)c1nnc(NC(=O)C2CC2)cc1Nc1cccc(-c2ncn(C)n2)c1OC [Example 67] | 100 | 70 |  |
| CNC(=O)c1nnc(Nc2ccccn2)cc1Nc1cccc(-c2ccn(C)n2)c1OC [Example 58] | 20 | 8.59 |  |
| CNC(=O)c1nnc(Nc2ccc(C)nn2)cc1Nc1ccccc1S(C)(=O)=O [Example 19] | 90 | 90 |  |
| CS(=O)(=O)c1ccccc1Nc1cc(Nc2ccc(F)cn2)nnc1C(N)=O [Example 2] | 140 | 50 |  |
| [2H]C([2H])([2H])NC(=O)c1nnc(NC(=O)C2CC2)cc1Nc1cccc(C#N)c1OC [Example 202, 4-((3-cyano-2-methoxyphenyl)amino)-6-(cyclopropanecarboxamido)-N-trideuteromethylpyridazine-3-carboxamide] |  |  | IC50 [1, 5]: 290 nM; IC50 [2, 6]: 330 nM |
| CNC(=O)c1nnc(NC(=O)C2CC2)cc1Nc1cccc(-c2ncn(CCF)n2)c1OC [Example 175] | 20 | 10 |  |
| CNC(=O)c1nnc(NC(=O)C2CC2)cc1Nc1cccc(-c2cn(C(C)C)nn2)c1OC [Example 190] | 20 | 20 |  |
| CNC(=O)c1nnc(Nc2cccc(C)n2)cc1Nc1ccccc1S(C)(=O)=O [Example 30] | 20 | 10 |  |
| CNC(=O)c1nnc(NC(=O)C2CC2)cc1Nc1cccc(-c2ncnn2C)c1OC [Example 179] | 450 | 140 |  |
